Molecules are shown by their SMILES. Bounds are passed on as bounds.

For experiment [1], the system named is L6-myotubes. The experiment is described as follows: Measurement of intracellular cAMP levels in differentiated L6-myotubes (Biological Example 3). Format: cell-based. Particulars: 0.25 h. How it is done:
(§1) Compounds described in publications referenced and incorporated herein were screened in accordance with the procedures outlined in Biological example 2 and Biological example 3.
Differentiated L6-myotubes were serum-starved overnight and stimulated with isoprenaline or the test compound with a final concentration of 1×10^−5 M, for 15 min in stimulation buffer (HBSS supplemented with 1% BSA, 5 mM HEPES and 1 mM IBMX, pH 7.4). The medium was aspirated and 100 μL of 95% EtOH was added to each well of the 24-well plate and cells were kept at −20° C. overnight. The EtOH was allowed to evaporate and 500 μL of lysis buffer (1% BSA, 5 mM HEPES and 0.3% Tween-20, pH 7.4) was added to each well. The plate was kept at −80° C. for 30 min and then at −20° C. until the day of detection when the samples were thawed. Intracellular cAMP levels were detected using an alpha screen cAMP kit (6760635D from Perkin Elmer).
For orientation: Cyclic AMP is a second messenger, typically raised through Gs and lowered through Gi signalling.

The subject of experiment [2] is L6-myotubes. The experiment is described as follows: Glucose uptake in differentiated L6-myotubes (Biological Example 2). Format: cell-based. Particulars: for Emax at 10 µM: read-out: Biological example 2 (GU). On the procedure: as §1
Differentiated L6-myotubes were serum-starved overnight in medium containing 0.5% fatty-acid free BSA and stimulated with isoprenaline or the test compound, with a final concentration of 1×10^−5 M. After 1 h 40 min the cells were washed with warm glucose free medium or PBS twice and another portion of agonist was added to the glucose free medium. After 20 min the cells were exposed to 50 nM ^3H-2-deoxyglucose for 10 min before washed with ice cold glucose free medium or PBS three times and lysed with 0.2 M NaOH, 400 μL/well, for 1 h at 60° C. The cell lysate was mixed with 4 mL scintillation buffer (Emulsifier Safe, Perkin Elmer) and the radioactivity was detected in a […] (Tri-Carb 4810TR, Perkin Elmer).

The mark [3] stands for this setting: intracellular cAMP in differentiated L6-myotubes, compound at 10 μM, activity relative to isoproterenol at 10 μM.
The mark [4] stands for this setting: glucose uptake in differentiated L6-myotubes, compound at 10 μM, activity relative to isoproterenol at 10 μM.
The mark [5] stands for this setting: intracellular cAMP, compound at 10 μM relative to isoproterenol at 10 μM.
[6] abbreviates: glucose uptake, compound at 10 μM relative to isoproterenol at 10 μM.

On to `CCC[C@@H]1CCCC[C@H]([C@@H](O)c2cncc(F)c2)N1` [Compound 218, (S)-[(2R,7R)-7-propyl-2-azepanyl](5-fluoro-3-pyridyl)methanol], for which the Emax at 10 µM in the experiment with L6-myotubes [1] (setting [3]) and with L6-myotubes [2] (setting [4]) was less than 25% in each case.

Consider `CC1(C)CCC[C@H]([C@H](O)c2cccc(Cl)c2)N1` [Compound 165], for which the Emax at 10 µM in the experiment with L6-myotubes [1] (setting [5]) was less than 25%; in the experiment on L6-myotubes [2] (setting [6]), 25 to 50%. For `CC(C)(C[C@H]1CC[C@H](NS(=O)(=O)C(F)(F)F)CC1)NC[C@H](O)c1cccc(F)c1` [Compound 458], the Emax at 10 µM in the experiment on L6-myotubes [1] (setting [3]) was less than 25%; in the experiment with L6-myotubes [2] (setting [4]), more than 75%. Consider `CCC[C@H]1CCC[C@H]([C@H](O)c2cccc(F)c2)N1` [Compound 69], for which the Emax at 10 µM in the experiment on L6-myotubes [1] (setting [5]) is less than 25%; in the experiment with L6-myotubes [2] (setting [6]) it was 50 to 75%.

For the molecule `CCCCNCC(O)c1ccncc1` (stereo not drawn) [Compound 48, 2-(butylamino)-1-(4-pyridyl)-1-ethanol], the Emax at 10 µM in the experiment on L6-myotubes [1] (setting [5]) is less than 25%; with L6-myotubes [2] (setting [6]), 25 to 50%. On to `CC(C)(C)NC[C@H](O)c1ccc(F)cn1` [Compound 96, (S)-2-(tert-butylamino)-1-(5-fluoro-2-pyridyl)-1-ethanol], for which the Emax at 10 µM was less than 25% in the experiment with L6-myotubes [1] (setting [5]) and 50 to 75% in the experiment with L6-myotubes [2] (setting [6]). As to `CCC[C@H]1CCC[C@H]([C@@H](O)c2cccc(Cl)c2)N1` [Compound 128], the Emax at 10 µM was less than 25% in the experiment with L6-myotubes [1] (setting [5]) and 25 to 50% in the experiment on L6-myotubes [2] (setting [6]). Turning to `CC1(C)C[C@H]([C@H](O)c2cccc(Cl)c2)N1` [Compound 230], the values for the Emax at 10 µM in the experiment with L6-myotubes [1] (setting [3]) and with L6-myotubes [2] (setting [4]) were less than 25% and more than 75%, respectively. As to `OC(CNCC1CCCCC1)c1ccccc1` (stereo not drawn) [Compound 7, 2-[(cyclohexylmethyl)amino]-1-phenyl-1-ethanol], the Emax at 10 µM is less than 25% with L6-myotubes [1] (setting [5]) and 25 to 50% in the experiment with L6-myotubes [2] (setting [6]).

On to `O[C@@H](CNC[C@H]1CC[C@@H](O)CC1)c1cccc(F)c1` [Compound 268, (R)-1-(m-fluorophenyl)-2-({[(1s,4S)-4-hydroxycyclohexyl]methyl}amino)-1-ethanol], for which the Emax at 10 µM in the experiment with L6-myotubes [1] (setting [3]) is less than 25%; with L6-myotubes [2] (setting [4]), 25 to 50%. As for `CN([C@H]1CC[C@@H](CC(C)(C)NC[C@H](O)c2cncc(F)c2)CC1)S(C)(=O)=O` [Compound 520], the figures for the Emax at 10 µM in the experiment on L6-myotubes [1] (setting [3]) and with L6-myotubes [2] (setting [4]) were less than 25% and 50 to 75%, respectively.

For the molecule `CC(C)(C[C@H]1CC[C@H](N)CC1)NC[C@@H](O)c1cccc(C#N)n1` [Compound 415], the Emax at 10 µM in the experiment with L6-myotubes [1] (setting [3]) is less than 25%; with L6-myotubes [2] (setting [4]) it was 50 to 75%. For the molecule `CC(C)(C[C@H]1CC[C@H](NC(=O)C2CCC2)CC1)NC[C@H](O)c1cccc(F)c1` [Compound 431], the Emax at 10 µM in the experiment on L6-myotubes [1] (setting [3]) is 50 to 75%; with L6-myotubes [2] (setting [4]), more than 75%. As for `CCCCNC[C@H](O)c1ccc(O)cc1` [Compound 9, (R)-2-(butylamino)-1-(p-hydroxyphenyl)-1-ethanol], the Emax at 10 µM with L6-myotubes [1] (setting [5]) is less than 25%; with L6-myotubes [2] (setting [6]) it was more than 75%. Consider `Oc1ccc(C(O)CNCCCC(F)(F)F)cc1` (stereo not drawn) [Compound 31, 1-(p-hydroxyphenyl)-2-(4,4,4-trifluorobutylamino)-1-ethanol], for which the Emax at 10 µM in the experiment with L6-myotubes [2] (setting [6]) lay in the range of 50 to 75%. As to `CN([C@H]1CC[C@H](CC(C)(C)NC[C@H](O)c2cccc(F)c2)CC1)S(C)(=O)=O` [Compound 499, (R)-2-{1,1-dimethyl-2-[(1r,4R)-4-(N-mesyl-N-methylamino)cyclohexyl]ethylamino}-1-(m-fluorophenyl)-1-ethanol], the Emax at 10 µM in the experiment on L6-myotubes [2] (setting [4]) fell in the range of 25 to 50%. For the molecule `CC(C)NCC(O)c1ccc(O)c(O)c1` (stereo not drawn) [isoprenaline, reference compound], the glucose uptake entry in the experiment on L6-myotubes [2] (L6-myotubes, FIGS. 2a-2d) is given as “full glucose uptake response”. On to `CCCCNCC(O)c1ccc(O)cc1` (stereo not drawn) [Compound 1, 2-(butylamino)-1-(p-hydroxyphenyl)-1-ethanol], for which the Emax at 10 µM with L6-myotubes [2] (setting [6]) was more than 75%. As to `O[C@@H](c1ccccc1F)C12CCC(CCc3cccnc3)(CC1)N2` [Compound 547, (S)-(o-fluorophenyl){4-[2-(3-pyridyl)ethyl]-7-azabicyclo[[2.2.1]]hept-1-yl}methanol], the Emax at 10 µM in the experiment on L6-myotubes [2] (setting [4]) was more than 75%.

The values are drawn from patent US20260216294A1, “BETA 2-ADRENERGIC RECEPTOR AGONISTS FOR TREATMENT OR PREVENTION OF MUSCLE WASTING” (ATROGI AB, priority 2023, published 2026).
